One test concerns E. coli. Description: Scanning electron microscopy of treated E. coli. The following applies: E. coli treated at 1/2× MIC and MIC, 24 h. It counts as cell-based. As for the experimental part:
500 μL of a E. coli culture (10^7 CFU mL^−^1) were added per well to a 12-well plate and were further treated with the complex 1b at its MIC and 1/2× MIC. A positive control of bacteria without any treatment and a negative control of only culture medium were included, following the same protocol as the rest of the conditions. Then, the plate was incubated at 37 °C with mild agitation for 24 h. After this time, the bacterial suspensions were transfered into 1.5 mL centrifugation tubes. Then, the bacteria were washed and fixed using glutaraldehyde 2.5% in phosphate buffer 10 mM at pH 7.2, with 2 h incubation. Then, bacteria were gradually dehydrated using EtOH solutions at different v/v% (25, 50, 75 and 100). 10 µL of the dehydrated bacteria solution was placed on a 5 × 5 mm Si waffle, left to dry and coated with a thin layer of carbon.

In test [1] the target is T1, human recombinant thioredoxin reductase (Homo sapiens, UniProt Q16881).
T1 construct: purchased SIGMA SRP6081
T1 sequence (Q16881 151-649 limits assumed): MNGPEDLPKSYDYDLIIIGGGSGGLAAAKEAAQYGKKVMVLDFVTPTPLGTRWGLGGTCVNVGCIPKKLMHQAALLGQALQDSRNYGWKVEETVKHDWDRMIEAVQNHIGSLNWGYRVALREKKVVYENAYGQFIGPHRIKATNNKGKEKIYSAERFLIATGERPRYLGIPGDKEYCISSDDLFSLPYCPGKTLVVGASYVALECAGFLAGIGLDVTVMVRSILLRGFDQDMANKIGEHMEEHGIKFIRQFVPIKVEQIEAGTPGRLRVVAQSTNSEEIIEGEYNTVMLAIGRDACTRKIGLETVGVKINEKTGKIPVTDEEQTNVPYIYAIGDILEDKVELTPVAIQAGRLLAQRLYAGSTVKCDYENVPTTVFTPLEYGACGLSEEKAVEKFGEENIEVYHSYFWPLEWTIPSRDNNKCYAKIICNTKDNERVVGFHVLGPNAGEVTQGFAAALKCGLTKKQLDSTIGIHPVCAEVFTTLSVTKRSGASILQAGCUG
Description: Recombinant human TrxR activity (DTNB). In kind it is biochemical. The following applies: 40 μM of complex; p > 0.05. As for the experimental part:
A measurement of human recombinant thioredoxin reductase was performed as previously described by Quero et al.. Briefly, gold complex was dissolved in DMSO at the desired concentrations and was incubated for 45 min with recombinant human TrxR (SIGMA SRP6081) at 37 °C in a 96 well plate. 25 μL of reaction mix, composed by 500 μL PBS pH 7.4, 80 μL 100 mM EDTA pH 7.5, 20 μL 0.05% BSA, 20 mM 100 μL NADPH, and 300 μL distilled H2O, was then added to each well. 25 μL of 20 mM 5,5′-dithiobis(2-nitrobenzoic acid) (DNTB), dissolved in 100% EtOH, were added to start the reaction and changes in absorbance at 405 nm were monitored every 10 s for 6 min. For comparison purposes, the activity of recombinant TrxR in presence of DMSO was used as negative control.

Molecules are shown by their SMILES.

As to `Cn1cc[n+](C)[c]1[Au-][C]#CCOc1c(-c2ccc(Br)cc2)oc2ccccc2c1=O` [1b, [Au(Lb)(IMe)] (R = Br; IMe = C5H10N2)], in the test with E. coli, the “cell morphology by SEM” value was “rougher surface of bacteria, with the presence of wrinkles and creases”; the “size (length) of bacteria by SEM” value is on record as “shrinking of bacteria, which is concentration dependent”. Also, in test [1], the “enzymatic activity of recombinant TrxR” value is recorded as “no significant changes”.

The record behind these values is publication PMC9612383, “Biological Activity of NHC-Gold-Alkynyl Complexes Derived from 3-Hydroxyflavones” (Pharmaceutics, 2022).
